Molecular target: T1, lipases, preferably HSL (Rattus norvegicus, UniProt P15304)
T1 sequence (P15304 1-768 isoform P15304-2): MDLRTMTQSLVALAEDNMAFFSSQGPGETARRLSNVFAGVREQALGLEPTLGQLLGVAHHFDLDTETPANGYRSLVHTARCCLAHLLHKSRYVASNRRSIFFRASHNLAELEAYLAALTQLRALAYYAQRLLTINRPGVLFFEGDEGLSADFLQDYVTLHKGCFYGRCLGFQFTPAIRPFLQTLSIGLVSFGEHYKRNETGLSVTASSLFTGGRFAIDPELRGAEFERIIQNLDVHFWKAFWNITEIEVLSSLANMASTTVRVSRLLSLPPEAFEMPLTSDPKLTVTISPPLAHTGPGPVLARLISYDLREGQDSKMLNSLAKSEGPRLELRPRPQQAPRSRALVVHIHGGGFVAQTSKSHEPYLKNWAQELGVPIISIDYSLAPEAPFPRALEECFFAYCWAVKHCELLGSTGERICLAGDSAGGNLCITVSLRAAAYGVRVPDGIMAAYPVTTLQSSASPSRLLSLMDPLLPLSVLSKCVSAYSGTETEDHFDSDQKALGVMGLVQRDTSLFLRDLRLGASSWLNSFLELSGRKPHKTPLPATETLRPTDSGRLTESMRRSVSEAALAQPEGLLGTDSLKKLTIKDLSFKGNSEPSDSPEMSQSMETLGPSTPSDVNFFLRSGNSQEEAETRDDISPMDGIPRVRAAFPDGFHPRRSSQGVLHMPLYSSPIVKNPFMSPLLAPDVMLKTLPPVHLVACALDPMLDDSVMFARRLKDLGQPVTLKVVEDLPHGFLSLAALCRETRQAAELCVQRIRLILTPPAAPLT
Test: Synthesized NBD-acylglycerides as substrates of lipases
Format: biochemical

Compound | Activity as substrate of lipases
CCCCCC(=O)OCC(COC(=O)CCCCCCCCCCCNc1ccc([N+](=O)[O-])c2nonc12)OC(=O)CCCCC (centres unmarked) [Compound (5), 2-Hexanoyloxy-3-[12-(7-nitrobenzo[1,2,5]oxadiazol-4-ylamino)-dodecanoyloxy]propyl hexanoate] | decrease in activity
O=C(CCCCCCCCCCCNc1ccc([N+](=O)[O-])c2nonc12)OC[C@H](O)CO [Compound (3b), (R)-2,3-dihydroxypropyl 12-(7-nitrobenzo[1,2,5]oxadiazol-4-ylamino)dodecanoate] | identical biological activity
